According to ChEMBL document CHEMBL4011631, “Trisubstituted Pyridinylimidazoles as Potent Inhibitors of the Clinically Resistant L858R/T790M/C797S EGFR Mutant: Targeting of Both Hydrophobic Regions and the Phosphate Binding Site” (J Med Chem, 2017):
Calls of active or inactive are those of the source. The calls are words filed in the database; no cut-off is given here.

molecular target: T1, Epidermal growth factor receptor (Homo sapiens, UniProt P00533, L858R); assay: not given; details: not given

SMILES	IC50 [nM]
NCCSc1nc(-c2ccc(F)cc2)c(-c2ccnc(Nc3ccccc3)c2)[nH]1	2.6
Fc1ccc(-c2nc(SCCN3CCOCC3)[nH]c2-c2ccnc(Nc3ccccc3)c2)cc1	75
CC(=O)CCCSc1nc(-c2ccc(F)cc2)c(-c2ccnc(Nc3ccccc3)c2)[nH]1	76
C=CC(=O)Nc1ccc(OC)c(Nc2cc(-c3[nH]c(SC)nc3C3CC3)ccn2)c1	< 1
C=CC(=O)NCCSc1nc(-c2ccc(F)cc2)c(-c2ccnc(Nc3ccccc3)c2)[nH]1	2.2
NCCCSc1nc(-c2ccc(F)cc2)c(-c2ccnc(Nc3ccccc3)c2)[nH]1	12
CN(C)C/C=C/C(=O)NCCSc1nc(-c2ccc(F)cc2)c(-c2ccnc(Nc3ccccc3)c2)[nH]1	1.9
CSc1nc(-c2ccc(F)cc2)c(-c2ccnc(Nc3cc(F)cc([N+](=O)[O-])c3)c2)[nH]1	55
C=CC(=O)Nc1ccc(OC)c(Nc2cc(-c3[nH]c(SC)nc3C3CCC3)ccn2)c1	< 1
C=CC(=O)Nc1cccc(Nc2cc(-c3[nH]c(SCCNC(=O)CC)nc3-c3ccccc3)ccn2)c1	< 1
C=CC(=O)Nc1ccc(OC)c(Nc2cc(-c3[nH]c(SC)nc3-c3ccc4ccccc4c3)ccn2)c1	< 1
C=CC(=O)NCCSc1nc(-c2ccc(F)c(C(F)(F)F)c2)c(-c2ccnc(Nc3ccccc3)c2)[nH]1	144
C=CC(=O)N1CCC(Sc2nc(-c3ccc(F)cc3)c(-c3ccnc(Nc4ccccc4)c3)[nH]2)C1 (stereo not given)	25
CCC(=O)Nc1ccc(OC)c(Nc2cc(-c3[nH]c(CCCO)nc3-c3ccc(F)cc3)ccn2)c1	< 1
OCCSc1nc(-c2ccc(F)cc2)c(-c2ccnc(Nc3ccccc3)c2)[nH]1	1.1

molecular target: T2, Epidermal growth factor receptor (Homo sapiens, UniProt P00533); assay: not given; type: ADME; details: not given

SMILES	IC50 [nM]
NCCSc1nc(-c2ccc(F)cc2)c(-c2ccnc(Nc3ccccc3)c2)[nH]1	4.8
Fc1ccc(-c2nc(SCCN3CCOCC3)[nH]c2-c2ccnc(Nc3ccccc3)c2)cc1	183
CC(=O)CCCSc1nc(-c2ccc(F)cc2)c(-c2ccnc(Nc3ccccc3)c2)[nH]1	185
C=CC(=O)Nc1ccc(OC)c(Nc2cc(-c3[nH]c(SC)nc3C3CC3)ccn2)c1	2.3
C=CC(=O)NCCSc1nc(-c2ccc(F)cc2)c(-c2ccnc(Nc3ccccc3)c2)[nH]1	1.6
NCCCSc1nc(-c2ccc(F)cc2)c(-c2ccnc(Nc3ccccc3)c2)[nH]1	55
CN(C)C/C=C/C(=O)NCCSc1nc(-c2ccc(F)cc2)c(-c2ccnc(Nc3ccccc3)c2)[nH]1	2.7
CSc1nc(-c2ccc(F)cc2)c(-c2ccnc(Nc3cc(F)cc([N+](=O)[O-])c3)c2)[nH]1	265
C=CC(=O)Nc1ccc(OC)c(Nc2cc(-c3[nH]c(SC)nc3C3CCC3)ccn2)c1	< 1
C=CC(=O)Nc1cccc(Nc2cc(-c3[nH]c(SCCNC(=O)CC)nc3-c3ccccc3)ccn2)c1	< 1
C=CC(=O)Nc1ccc(OC)c(Nc2cc(-c3[nH]c(SC)nc3-c3ccc4ccccc4c3)ccn2)c1	< 1
C=CC(=O)NCCSc1nc(-c2ccc(F)c(C(F)(F)F)c2)c(-c2ccnc(Nc3ccccc3)c2)[nH]1	45
C=CC(=O)N1CCC(Sc2nc(-c3ccc(F)cc3)c(-c3ccnc(Nc4ccccc4)c3)[nH]2)C1 (stereo not given)	217
CCC(=O)Nc1ccc(OC)c(Nc2cc(-c3[nH]c(CCCO)nc3-c3ccc(F)cc3)ccn2)c1	< 1
OCCSc1nc(-c2ccc(F)cc2)c(-c2ccnc(Nc3ccccc3)c2)[nH]1	11

molecular target: T3, Epidermal growth factor receptor (Homo sapiens, UniProt P00533, L858R/T790M); assay: not given; details: not given

SMILES	IC50 [nM]
NCCSc1nc(-c2ccc(F)cc2)c(-c2ccnc(Nc3ccccc3)c2)[nH]1	29
Fc1ccc(-c2nc(SCCN3CCOCC3)[nH]c2-c2ccnc(Nc3ccccc3)c2)cc1	1250
CC(=O)CCCSc1nc(-c2ccc(F)cc2)c(-c2ccnc(Nc3ccccc3)c2)[nH]1	1330
C=CC(=O)Nc1ccc(OC)c(Nc2cc(-c3[nH]c(SC)nc3C3CC3)ccn2)c1	7.4
C=CC(=O)NCCSc1nc(-c2ccc(F)cc2)c(-c2ccnc(Nc3ccccc3)c2)[nH]1	38
NCCCSc1nc(-c2ccc(F)cc2)c(-c2ccnc(Nc3ccccc3)c2)[nH]1	240
CN(C)C/C=C/C(=O)NCCSc1nc(-c2ccc(F)cc2)c(-c2ccnc(Nc3ccccc3)c2)[nH]1	18
CSc1nc(-c2ccc(F)cc2)c(-c2ccnc(Nc3cc(F)cc([N+](=O)[O-])c3)c2)[nH]1	586
C=CC(=O)Nc1ccc(OC)c(Nc2cc(-c3[nH]c(SC)nc3C3CCC3)ccn2)c1	6.8
C=CC(=O)Nc1cccc(Nc2cc(-c3[nH]c(SCCNC(=O)CC)nc3-c3ccccc3)ccn2)c1	2.5
C=CC(=O)Nc1ccc(OC)c(Nc2cc(-c3[nH]c(SC)nc3-c3ccc4ccccc4c3)ccn2)c1	1.1
C=CC(=O)NCCSc1nc(-c2ccc(F)c(C(F)(F)F)c2)c(-c2ccnc(Nc3ccccc3)c2)[nH]1	646
C=CC(=O)N1CCC(Sc2nc(-c3ccc(F)cc3)c(-c3ccnc(Nc4ccccc4)c3)[nH]2)C1 (stereo not given)	417
CCC(=O)Nc1ccc(OC)c(Nc2cc(-c3[nH]c(CCCO)nc3-c3ccc(F)cc3)ccn2)c1	< 1
OCCSc1nc(-c2ccc(F)cc2)c(-c2ccnc(Nc3ccccc3)c2)[nH]1	83

system: Epidermal growth factor receptor (Homo sapiens), P00533 [T790M]; assay: Covalent binding affinity to EGFR T790M mutant (unknown origin) at 100 uM after 1 hr by mass spectrometric analysis; details: not given

Activity	SMILES
Active	C=CC(=O)Nc1ccc(OC)c(Nc2cc(-c3[nH]c(SC)nc3-c3ccc(F)cc3)ccn2)c1

system: A-431; assay: cells; type: ADME, cell-based; details: Homo sapiens, A-431, 96 h
Description: Antiproliferative activity against human A431 cells harboring wild type EGFR assessed as growth inhibition after 96 hrs by CellTiter-Glo assay

SMILES	EC50 [nM]
C=CC(=O)N1CCC[C@@H]1CSc1nc(-c2ccc(F)cc2)c(-c2ccnc(Nc3ccccc3)c2)[nH]1	6900
C=CC(=O)Nc1ccc(OC)c(Nc2cc(-c3[nH]c(SC)nc3-c3ccc(F)cc3)ccn2)c1	4100
C=CC(=O)N1CCC[C@H]1CSc1nc(-c2ccc(F)cc2)c(-c2ccnc(Nc3ccccc3)c2)[nH]1	8800
C=CC(=O)Nc1cccc(Oc2nc(Nc3ccc(N4CCN(C)CC4)cc3OC)ncc2Cl)c1	2200
NCCSc1nc(-c2ccc(F)cc2)c(-c2ccnc(Nc3ccccc3)c2)[nH]1	11000
Fc1ccc(-c2nc(SCCN3CCOCC3)[nH]c2-c2ccnc(Nc3ccccc3)c2)cc1	10000
CC(=O)CCCSc1nc(-c2ccc(F)cc2)c(-c2ccnc(Nc3ccccc3)c2)[nH]1	12000
C=CC(=O)Nc1ccc(OC)c(Nc2cc(-c3[nH]c(SC)nc3C3CC3)ccn2)c1	8000
CN(C)C(=O)CSc1nc(-c2ccc(F)cc2)c(-c2ccnc(Nc3ccccc3)c2)[nH]1	18000
C=CC(=O)NCCSc1nc(-c2ccc(F)cc2)c(-c2ccnc(Nc3ccccc3)c2)[nH]1	12000
NCCCSc1nc(-c2ccc(F)cc2)c(-c2ccnc(Nc3ccccc3)c2)[nH]1	7400
CN(C)C/C=C/C(=O)NCCSc1nc(-c2ccc(F)cc2)c(-c2ccnc(Nc3ccccc3)c2)[nH]1	6600
CSc1nc(-c2ccc(F)cc2)c(-c2ccnc(Nc3cc(F)cc([N+](=O)[O-])c3)c2)[nH]1	19000
C=CC(=O)Nc1ccc(OC)c(Nc2cc(-c3[nH]c(SC)nc3C3CCC3)ccn2)c1	8900
C=CC(=O)Nc1cccc(Nc2cc(-c3[nH]c(SCCNC(=O)CC)nc3-c3ccccc3)ccn2)c1	1500
C=CC(=O)Nc1ccc(OC)c(Nc2cc(-c3[nH]c(SC)nc3-c3ccc4ccccc4c3)ccn2)c1	3000
C=CC(=O)NCCSc1nc(-c2ccc(F)c(C(F)(F)F)c2)c(-c2ccnc(Nc3ccccc3)c2)[nH]1	11000
C=CC(=O)N1CCC(Sc2nc(-c3ccc(F)cc3)c(-c3ccnc(Nc4ccccc4)c3)[nH]2)C1 (stereo not given)	17000
CCC(=O)Nc1ccc(OC)c(Nc2cc(-c3[nH]c(CCCO)nc3-c3ccc(F)cc3)ccn2)c1	17000
OCCSc1nc(-c2ccc(F)cc2)c(-c2ccnc(Nc3ccccc3)c2)[nH]1	11000

system: NCI-H1975; assay: cells; type: functional, cell-based; details: Homo sapiens, NCI-H1975, 96 h

SMILES	EC50 [nM]
C=CC(=O)N1CCC[C@@H]1CSc1nc(-c2ccc(F)cc2)c(-c2ccnc(Nc3ccccc3)c2)[nH]1	3400
C=CC(=O)Nc1ccc(OC)c(Nc2cc(-c3[nH]c(SC)nc3-c3ccc(F)cc3)ccn2)c1	< 14
C=CC(=O)N1CCC[C@H]1CSc1nc(-c2ccc(F)cc2)c(-c2ccnc(Nc3ccccc3)c2)[nH]1	4700
C=CC(=O)Nc1cccc(Oc2nc(Nc3ccc(N4CCN(C)CC4)cc3OC)ncc2Cl)c1	100
NCCSc1nc(-c2ccc(F)cc2)c(-c2ccnc(Nc3ccccc3)c2)[nH]1	7200
Fc1ccc(-c2nc(SCCN3CCOCC3)[nH]c2-c2ccnc(Nc3ccccc3)c2)cc1	15000
CC(=O)CCCSc1nc(-c2ccc(F)cc2)c(-c2ccnc(Nc3ccccc3)c2)[nH]1	14000
C=CC(=O)Nc1ccc(OC)c(Nc2cc(-c3[nH]c(SC)nc3C3CC3)ccn2)c1	2300
CN(C)C(=O)CSc1nc(-c2ccc(F)cc2)c(-c2ccnc(Nc3ccccc3)c2)[nH]1	16000
C=CC(=O)NCCSc1nc(-c2ccc(F)cc2)c(-c2ccnc(Nc3ccccc3)c2)[nH]1	2400
NCCCSc1nc(-c2ccc(F)cc2)c(-c2ccnc(Nc3ccccc3)c2)[nH]1	8400
CN(C)C/C=C/C(=O)NCCSc1nc(-c2ccc(F)cc2)c(-c2ccnc(Nc3ccccc3)c2)[nH]1	> 5000
CSc1nc(-c2ccc(F)cc2)c(-c2ccnc(Nc3cc(F)cc([N+](=O)[O-])c3)c2)[nH]1	30000
C=CC(=O)Nc1ccc(OC)c(Nc2cc(-c3[nH]c(SC)nc3C3CCC3)ccn2)c1	2000
C=CC(=O)Nc1cccc(Nc2cc(-c3[nH]c(SCCNC(=O)CC)nc3-c3ccccc3)ccn2)c1	2800
C=CC(=O)Nc1ccc(OC)c(Nc2cc(-c3[nH]c(SC)nc3-c3ccc4ccccc4c3)ccn2)c1	380
C=CC(=O)NCCSc1nc(-c2ccc(F)c(C(F)(F)F)c2)c(-c2ccnc(Nc3ccccc3)c2)[nH]1	3100
C=CC(=O)N1CCC(Sc2nc(-c3ccc(F)cc3)c(-c3ccnc(Nc4ccccc4)c3)[nH]2)C1 (stereo not given)	14000
CCC(=O)Nc1ccc(OC)c(Nc2cc(-c3[nH]c(CCCO)nc3-c3ccc(F)cc3)ccn2)c1	7200
OCCSc1nc(-c2ccc(F)cc2)c(-c2ccnc(Nc3ccccc3)c2)[nH]1	16000

molecular target: Epidermal growth factor receptor (Homo sapiens, UniProt P00533, C797S/L858R/T790M); assay: Inhibition of human EGFR T790M/C797S/L858R triple mutant preincubated for 20 mins followed by [33P]ATP addition measured after 2 hrs; details: not given

SMILES	IC50 [nM]
CCC(=O)Nc1ccc(OC)c(Nc2cc(-c3[nH]c(CCCO)nc3-c3ccc(F)cc3)ccn2)c1	7

system: not listed separately; assay: Drug degradation in human liver microsomes at 100 uM preincubated for 5 mins with NADPH-regenerating system followed by liver microsomes addition measured after 240 mins by LC-MS analysis; type: ADME, microsome; details: read-out: Drug degradation

metabolised at 4 h, 100 µM [%]	SMILES
23	C=CC(=O)Nc1ccc(OC)c(Nc2cc(-c3[nH]c(SC)nc3-c3ccc(F)cc3)ccn2)c1

molecular target: T1, Epidermal growth factor receptor; assay: not given; details: not given; remark: another data set of the same source

SMILES	Ki [nM]
C=CC(=O)NCCSc1nc(-c2ccc(F)cc2)c(-c2ccnc(Nc3ccccc3)c2)[nH]1	0.38

molecular target: T3, Epidermal growth factor receptor; assay: not given; details: not given; remark: another data set of the same source

SMILES	Ki [nM]
C=CC(=O)NCCSc1nc(-c2ccc(F)cc2)c(-c2ccnc(Nc3ccccc3)c2)[nH]1	6

molecular target: T2, Epidermal growth factor receptor; assay: not given; details: read-out: Ratio

SMILES	kinact/KI [M⁻¹ s⁻¹]
C=CC(=O)NCCSc1nc(-c2ccc(F)cc2)c(-c2ccnc(Nc3ccccc3)c2)[nH]1	940000

molecular target: T2, Epidermal growth factor receptor; assay: not given; details: not given; remark: another data set of the same source

SMILES	Ki [nM]
C=CC(=O)NCCSc1nc(-c2ccc(F)cc2)c(-c2ccnc(Nc3ccccc3)c2)[nH]1	1.6

same assay, conditions: human

SMILES	kinact [s⁻¹]
C=CC(=O)NCCSc1nc(-c2ccc(F)cc2)c(-c2ccnc(Nc3ccccc3)c2)[nH]1	0.0015
